Laboratory results reported in ChEMBL document CHEMBL5038589, “Design, Synthesis, and Structure-Activity Relationship of N-Aryl-N'-(thiophen-2-yl)thiourea Derivatives as Novel and Specific Human TLR1/2 Agonists for Potential Cancer Immunotherapy” (J Med Chem, 2021).
Activity calls are given as the source filed them. The rule behind the calls is not given here.

What was measured:
[1] = target: Toll-like receptor 8 (Homo sapiens) (UniProt Q9NR97); experiment: Agonist activity at TLR8 in HEK-Blue hTLR8 cells at 0.1 to 100 uM incubated for 24 hrs by Quanti-Blue based SEAP assay; format: cell-based; conditions: dose 0.1-100 µM
Sequence of Toll-like receptor 8 (Homo sapiens) (Q9NR97 whole entry): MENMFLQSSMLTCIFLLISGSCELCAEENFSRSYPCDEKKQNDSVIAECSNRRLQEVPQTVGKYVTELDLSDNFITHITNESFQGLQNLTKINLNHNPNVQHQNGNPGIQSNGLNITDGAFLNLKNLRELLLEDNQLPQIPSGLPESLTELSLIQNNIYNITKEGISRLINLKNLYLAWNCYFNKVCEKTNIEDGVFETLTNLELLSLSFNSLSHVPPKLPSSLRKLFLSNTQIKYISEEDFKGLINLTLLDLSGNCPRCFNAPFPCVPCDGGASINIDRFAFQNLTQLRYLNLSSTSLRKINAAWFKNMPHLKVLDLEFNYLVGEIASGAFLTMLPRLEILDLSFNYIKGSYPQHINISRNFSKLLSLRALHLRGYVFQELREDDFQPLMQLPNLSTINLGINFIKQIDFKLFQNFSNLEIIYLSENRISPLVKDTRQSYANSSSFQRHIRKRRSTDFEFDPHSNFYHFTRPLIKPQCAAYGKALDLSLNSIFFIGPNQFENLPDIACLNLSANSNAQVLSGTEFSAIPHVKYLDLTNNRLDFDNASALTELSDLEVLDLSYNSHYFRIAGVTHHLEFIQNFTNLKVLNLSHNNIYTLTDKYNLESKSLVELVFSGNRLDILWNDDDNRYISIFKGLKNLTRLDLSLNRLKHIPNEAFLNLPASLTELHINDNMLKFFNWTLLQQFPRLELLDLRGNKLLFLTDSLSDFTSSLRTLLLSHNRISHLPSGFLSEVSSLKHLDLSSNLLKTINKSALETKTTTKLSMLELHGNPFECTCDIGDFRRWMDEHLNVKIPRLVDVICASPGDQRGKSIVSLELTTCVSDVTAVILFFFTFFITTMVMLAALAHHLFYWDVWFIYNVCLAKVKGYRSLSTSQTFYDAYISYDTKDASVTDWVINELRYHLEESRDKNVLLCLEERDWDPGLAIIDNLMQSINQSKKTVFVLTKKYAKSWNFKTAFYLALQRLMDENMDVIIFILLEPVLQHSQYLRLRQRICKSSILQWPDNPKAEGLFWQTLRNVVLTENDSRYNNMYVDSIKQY

[2] = target: Toll-like receptor 1 (Homo sapiens) (UniProt Q15399); experiment: Agonist activity at TLR1 in HEK-Blue hTLR2 cells at 0.2 uM incubated for 24 hrs in presence of anti-hTLR1-IgG antibodies measured by Quanti-Blue based SEAP assay; format: cell-based; conditions: filed as agonist
Sequence of Toll-like receptor 1 (Homo sapiens) (Q15399 whole entry): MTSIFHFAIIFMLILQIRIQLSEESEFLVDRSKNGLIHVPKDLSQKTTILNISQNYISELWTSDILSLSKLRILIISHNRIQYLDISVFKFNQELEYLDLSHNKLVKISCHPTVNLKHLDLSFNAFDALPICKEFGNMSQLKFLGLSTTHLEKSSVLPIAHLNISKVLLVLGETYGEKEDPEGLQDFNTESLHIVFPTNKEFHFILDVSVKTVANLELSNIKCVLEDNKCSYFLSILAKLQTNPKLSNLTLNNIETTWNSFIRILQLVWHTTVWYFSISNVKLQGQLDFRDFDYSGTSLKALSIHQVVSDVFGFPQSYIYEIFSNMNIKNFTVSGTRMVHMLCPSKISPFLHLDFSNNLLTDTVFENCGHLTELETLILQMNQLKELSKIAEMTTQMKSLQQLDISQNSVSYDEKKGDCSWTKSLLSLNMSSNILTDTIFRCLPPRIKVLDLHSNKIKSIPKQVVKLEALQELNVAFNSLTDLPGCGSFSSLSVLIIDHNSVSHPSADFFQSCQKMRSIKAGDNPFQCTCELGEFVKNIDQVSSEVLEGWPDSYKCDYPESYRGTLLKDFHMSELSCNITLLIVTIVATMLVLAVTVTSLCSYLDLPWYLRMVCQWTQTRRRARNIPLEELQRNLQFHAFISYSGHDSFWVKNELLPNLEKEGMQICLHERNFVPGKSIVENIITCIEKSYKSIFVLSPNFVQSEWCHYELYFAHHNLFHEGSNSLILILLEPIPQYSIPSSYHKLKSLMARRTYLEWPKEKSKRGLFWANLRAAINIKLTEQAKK

[3] = target: Toll-like receptor 2 (Homo sapiens, UniProt O60603); experiment: Agonist activity at TLR2 in HEK-Blue hTLR2 cells at 0.2 uM incubated for 24 hrs in presence of anti-hTLR2-IgA antibodies measured by Quanti-Blue based SEAP assay; format: cell-based; conditions: filed as agonist
Sequence of Toll-like receptor 2 (O60603 whole entry): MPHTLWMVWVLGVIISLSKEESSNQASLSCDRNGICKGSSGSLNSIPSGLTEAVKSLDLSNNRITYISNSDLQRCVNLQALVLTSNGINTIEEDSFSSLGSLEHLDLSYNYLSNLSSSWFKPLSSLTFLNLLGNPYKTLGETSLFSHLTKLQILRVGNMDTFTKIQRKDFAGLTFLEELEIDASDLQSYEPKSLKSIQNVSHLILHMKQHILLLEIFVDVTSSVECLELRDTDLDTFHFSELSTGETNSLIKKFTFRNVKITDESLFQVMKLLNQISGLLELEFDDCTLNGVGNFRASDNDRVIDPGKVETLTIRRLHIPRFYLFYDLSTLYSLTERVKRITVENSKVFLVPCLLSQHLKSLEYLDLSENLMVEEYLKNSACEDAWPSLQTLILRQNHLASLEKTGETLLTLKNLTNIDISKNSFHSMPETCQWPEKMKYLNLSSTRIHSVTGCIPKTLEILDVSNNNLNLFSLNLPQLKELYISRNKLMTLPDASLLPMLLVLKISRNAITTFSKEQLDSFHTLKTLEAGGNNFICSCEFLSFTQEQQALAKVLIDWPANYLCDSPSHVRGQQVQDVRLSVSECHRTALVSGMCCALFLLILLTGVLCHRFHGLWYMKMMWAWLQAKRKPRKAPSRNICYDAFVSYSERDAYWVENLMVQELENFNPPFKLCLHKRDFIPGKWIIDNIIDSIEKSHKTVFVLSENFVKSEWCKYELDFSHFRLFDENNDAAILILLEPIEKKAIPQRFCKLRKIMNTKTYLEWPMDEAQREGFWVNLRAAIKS

[4] = Cytotoxicity against HEK-Blue TLR2 cells upto 100 uM incubated for 24 hrs by CCK-8 assay; format: toxicity, cell-based; conditions: human, hek-blue htlr2, 24 h
[5] = Cytotoxicity against human PBMC upto 100 uM incubated for 24 hrs by CCK-8 assay; format: toxicity, cell-based
[6] = tested on: THP-1; experiment: Upregulation of TLR2 expression in human THP-1 cells at 0.01 to 50 uM incubated for 24 hrs by Western blot analysis; format: functional, cell-based; conditions: dose 0.01-50 µM
[7] = tested on: THP-1; experiment: Upregulation of TLR2 expression in human THP-1 cells at 20 uM by immunoprecipitation method; format: functional, cell-based
[8] = tested on: THP-1; experiment: Upregulation of TLR6 expression in human THP-1 cells at 20 uM by immunoprecipitation method; format: functional, cell-based
[9] = tested on: THP-1; experiment: Agonist activity at TLR2/MyD88 in human THP-1 cells assessed as induction of TLR2/MyD88 complex formation at 20 uM incubated for 12 hrs by coimmunoprecipitation method; format: cell-based; conditions: filed as agonist
[10] = tested on: THP-1; experiment: Upregulation of MyD88 expression in human PMA-differentiated THP-1 cells in presence of T6167923 at 10 uM incubated for 2 hrs by western blot analysis; format: functional, cell-based
[11] = tested on: THP-1; experiment: Upregulation of MyD88 expression in human PMA-differentiated THP-1 cells assessed as induction of IKKbeta phosphorylation at 10 uM incubated for 2 hrs by Western blot analysis; format: functional, cell-based
[12] = tested on: THP-1; experiment: Upregulation of MyD88 expression in human PMA-differentiated THP-1 cells assessed as induction of p65 phosphorylation at 10 uM incubated for 2 hrs by Western blot analysis; format: functional, cell-based
[13] = tested on: THP-1; experiment: Induction of ERK phosphorylation in human PMA-differentiated THP-1 cells at 10 uM incubated for 2 hrs by Western blot analysis; format: functional, cell-based
[14] = tested on: Macrophage; experiment: Induction of TNFalpha secretion in TLR2-/- C57BL/6 mouse peritoneal macrophages at 0.01 to 10 uM incubated for 24 hrs by ELISA method; format: functional, cell-based; conditions: dose 0.01-10 µM
[15] = tested on: Macrophage; experiment: Induction of IL-6 secretion in wild-type C57BL/6 mouse peritoneal macrophages at 0.01 to 10 uM incubated for 24 hrs by ELISA method; format: functional, cell-based; conditions: dose 0.01-10 µM
[16] = tested on: Monocyte; experiment: Immunostimulatory activity in human monocytes assessed as fold increase at 0.1 to 10 uM incubated for 48 hrs by flow cytometry analysis; format: functional; conditions: dose 0.1-10 µM
[17] = tested on: Natural killer cell; experiment: Immunostimulatory activity in human NK cells assessed as fold increase at 0.1 to 10 uM incubated for 48 hrs by flow cytometry analysis; format: functional; conditions: dose 0.1-10 µM
[18] = tested on: CD3-positive T cell; experiment: Immunostimulatory activity in mouse C57 spleen CD3+ T cells in assessed as fold increase at 0.1 to 10 uM incubated for 48 hrs by flow cytometry analysis; format: functional, cell-based; conditions: dose 0.1-10 µM
[19] = tested on: HCT-116; experiment: Induction of apoptosis in human HCT-116 cells cocultured with PMA-differentiated THP-1 cells assessed as increase in annexin-V positive cells at 10 uM measured after 24 hrs by annexin V-FITC/PI staining based flow cytometry (reference value: 16.23%); format: functional
[20] = tested on: MCF7; experiment: Induction of apoptosis in human MCF7 cells cocultured with PMA-differentiated THP-1 cells assessed as late apoptotic cells at 10 uM measured after 24 hrs by annexin V-FITC/PI staining based flow cytometry (reference value: 5.41 %); format: functional
[21] = tested on: HCT-116; experiment: Induction of apoptosis in human HCT-116 cells upto 100 uM by microplate reader analysis; format: functional, cell-based; conditions: dose microM <=100
[22] = tested on: THP-1; experiment: Upregulation of MyD88 expression in human PMA-differentiated THP-1 cells in presence of T6167923 at 10 uM after 30 mins by western blot analysis; format: functional, cell-based

- Activity [1]: inactive
- Activity [2]: Active
- Activity [3]: Active
Compound: CC(C)OC(=O)c1c(NC(=S)Nc2ccc(F)c3ccccc23)sc2c1CCC2
- Activity [4]: Non-Toxic
- Activity [5]: Non-Toxic
- Activity [6]: Active
- Activity [7]: Active
- Activity [8]: inactive
- Activity [9]: Active
- Activity [10]: inactive
- Activity [11]: Active
- Activity [12]: Active
- Activity [13]: inactive
- Activity [14]: inactive
- Activity [15]: inactive
- fold change (FC) [16]: 2
- fold change (FC) [17]: 2
- Activity [18]: inactive
- Activity [19]: 25.85%
- Activity [20]: 25%
- Activity [21]: inactive
- Activity [22]: Active
